Results on two molecules are retold here after patent US20250325256A1, “LIPID PATCH” (SENSACH AB, priority 2021, published 2025).

The nature of data set [1]: Passive diffusion extraction of Trp and Kyn. In kind it is in vitro ADME, pig. Conditions: for Normalized cumulative amount Passive / Cumulative amount Passive / Flux Passive: mean ± SEM. The procedure:
Pig skin, purchased from a local abattoir, was gently cleaned post-sacrifice under cold running water. The skin from abdomen or from the inside of the outer ear was used as in vitro skin model. […] Skin samples were then wrapped individually in Parafilm™ and kept at −20° C. for not more than three months until use. Prior to extraction experiments, skin was cut into 4 cm^2 membranes while still being frozen. Prepared skin membranes were then left at ambient environment for 30 minutes to thaw and obtain room temperature. The integrity of each skin membrane was visually inspected against the light in order to ensure that there were no visible damages (holes). Hairs were then further trimmed with scissors and skin was gently rinsed under cold running water.
In order to determine if reverse iontophoresis can enhance the extraction of Trp compared to their passive diffusion extraction, similar experiments were conducted without the current passage. These passive diffusion experiments were conducted using the same horizontal side-by-side cell setup in parallel to reverse iontophoresis experiments in order to ensure identical conditions. In line with reverse iontophoretic experiment, after the 6-hour sampling, subdermal compartment was emptied and experiment was allowed to continue for another 18 hours. Passive diffusion experiments were repeated four times (n=4).
Prior to HPLC-UV analysis, samples were thawed and vortexed.
Anodal, cathodal and passive fluxes of Trp and Kyn were directly calculated from the amount (mol) extracted at each sampling interval and normalized for the surface area available for extraction (0.785 cm^2) and duration of the interval (in hours). The 6-hour flux values were used for the analysis of transport direction as well for comparison between reverse iontophoretic and passive extraction efficiency. The physiochemical properties of both endogenous substances were estimated. In order to compare results, the enhancement ratio (ER) was determined after 6 hours as […]

The conditions of data set [2]: for Kcub/w / log Kcub/w: fully swollen Pn3m cubic phase (GMO/water) vs water; for bilayer/water partitioning, Kcub/w / bilayer/water partitioning, log Kcub/w: fully swollen Pn3m cubic phase (GMO/water), calculated; for partitioning into the cubic lipid bilayer compared to kynurenine: fully swollen GMO cubic phase.
Method: Four concentrations of Trp and Kyn in a range 0.125 mM to 1 mM, corresponding to lipid:Trp(Kyn) ratio in the range 7200:1-900:1, were prepared in Milli-Q water in order to investigate the effect of concertation on the partitioning. The fully swollen cubic phases (˜0.25 g) were prepared by mixing the appropriate amount of GMO with an excess of Milli-Q water (1:1 weight ratio) in a 1.7 mL glass vials and left to equilibrate for 7 days. When samples were equilibrated (typically within 2 days a glass-clear and non-floating cubic phase was formed), each vial was checked between cross polarizers to ensure that no birefringence could be observed. The excess of water was then removed and 500 μL of solution with different concentrations of Trp/Kyn (molar ratio 1:1) were added to each vial. Final samples were allowed to equilibrate with respect to Trp and Kyn partitioning between the lipid bilayer and the aqueous phase. First sampling was performed after one week of equilibration by withdrawing 50 μL of the aqueous phase. Second sampling was performed in identical manner after 2 weeks of equilibration to investigate the time aspect on the partitioning. All samples collected during the partition study were diluted to a final volume 500 μL with Milli-Q water and filtered with a 0.2 μm syringe filters (13 mm PTFE membrane, VWR International, USA) prior to the HPLC-UV analysis. All partition experiments were performed in triplicates.
The lipid bilayer/water partition coefficient, Kbl/w, may be defined as
where [X] is the concentration of an endogenous substance of interest (e.g., Trp and Kyn) in the bilayer and in water. While concertation of a substance in the aqueous phase can easily be determined by a suitable analytical procedure (e.g., HPLC, LC-MS etc.), determination of the concertation in the bilayer requires two assumptions. […] The second assumption is that the concentration of an endogenous substance in the water channels of the cubic phase is the same as in the water bulk phase, which is based on the equilibrium between chemical potentials of endogenous substances in water channels and in the bulk phase. Thus, the partition coefficient may be calculated by rewriting the Eq. 2 as follows
where Vw is the volume of a water solution containing endogenous substance X added to the cubic phase, [X]0w is the initial concentration of an endogenous substance, [X]w is the concentration of endogenous substance in the water phase after equilibration, Vbl is the volume of GMO, Vcube is the volume of water that was added to GMO to form a cubic phase.
The quantification of Trp and Kyn was performed by HPLC-UV system (Agilent 1100 Series, Germany). The chromatographic separation of Trp and Kyn was carried out on 250 mm×4.6 mm Kromasil C18 column with particle size of 5 μm (AkzoNobel, Bellefonte, USA). Endogenous substances were separated by gradient elution using mobile phase A consisting of 10 mM NaH2PO4 (pH 2.8) and mobile phase B consisting of 100% MeOH at 0.9 mL/min flow rate and 40° C. column temperature. […] The total run time was 17 minutes and injection volume was set to 20 μL. Detection of Trp and Kyn was performed at their UV absorbance maxima, at 280 nm and 360 nm, respectively. Stock solutions of 10 mM of Trp and Kyn for calibration curve were prepared in Milli-Q water and kept in the freezer (−20° C.) for no longer than one day after preparation. Calibration standards for calibration curve were analyzed in the range 0.78 μM to 100 μM (R^2>0.999) the same day as the experimental samples.
Data set [3] in a line: Reverse iontophoretic extraction into GMO cubic phase receptor matrix. In kind it is in vitro ADME, pig. Conditions: for Cumulative amount Cubic at anode / Cumulative amount Cubic at cathode: in the cubic phase, 6 h, HEPES pH 7.4; for Cumulative amount Total at anode / Cumulative amount Total at cathode: sum of receptor solution after 6 hours and cubic phase. Here is the method: Another objective of the present intention was to investigate the potency of a liquid crystalline cubic phase formed by GMO and water to serve as a matrix for iontophoresis. In order to keep experimental conditions as similar as possible to the previously described experiments, the same horizontal side-by-side cells were used. A fully swollen cubic phase (Pn3m space group) was added into a custom-made sample holder ensuring the formulation was in contact with the skin. In order to prevent contact between the cubic phase and the electrodes, 2 mL of HEPES buffer (pH 7.4, 60 mM NaCl) was added to each receptor compartment. Sampling was performed by withdrawing 1 ml of receptor solution and replacing it with a 1 mL of empty buffer every hour for 6 hours. After the last sampling, the experiment was terminated, and the cubic phase was collected for further analysis. […] It is important to point out that partitioning of Trp and Kyn into cubic bilayer was not taken into account during the calculation of the extracted amounts of respective endogenous substance. The amounts were determined based on the volume of the receptor matrix (100 μL).
The samples for reverse iontophoretic extraction experiments consisting of a liquid crystalline cubic phase were prepared by weighing 0.1 g of glycerol monooleate (GMO) in a 1.8 mL glass vials. GMO was then melted at 45° C. by immersing the vials in the water bath and centrifuged at 1000 g for 5 minutes. The vials were then placed in the freezer (−20° C.) for 30 minutes in order for GMO to crystalize. After crystallization vials were taken out of the freezer and 0.5 g of Milli-Q water was added to each vial, ensuring the excess of added water. […] Prior to use, each vial was examined between cross polarizers for any sign of anisotropy, which would imply that sample had not yet reached equilibrium. […]

The format of data set [4] is in vitro ADME, pig. Here is the method:
Therefore, identical reverse iontophoretic extraction experiments were performed with an empty donor solution (i.e., neat PBS buffer pH 7.4) and the results are shown in FIG. 14. As in the previous section, Trp was extracted towards both receptor compartments, however, the main direction of extraction was towards the cathode. […] This is most likely due to the fact that the amount of extracted Kyn was below the limit of detection by means of HPLC-UV. Therefore, a more sensitive analysis technique is required for quantification of endogenously present Kyn. The cumulative amount of extracted Trp to the cathode was 0.44±0.06 nmol/cm^2 and the anode 0.22±0.05 nmol/cm^2.
Control reverse iontophoretic extraction experiments were conducted in order to estimate the levels of endogenous Trp and, potentially Kyn. It is known that Trp is present in the SC as a part of natural moisturizing factor (NMF), which primarily consists of free amino acids and their derivatives55,56. These experiments were performed using the identical experimental setup with a neat PBS buffer (pH 7.4) in the donor compartment (i.e., no Trp or Kyn being present) and 10 mM HEPES with 60 mM NaCl as background electrolyte (pH 7.4). Sampling was performed once an hour for 6 hours by withdrawing 1 mL of receptor solution and replacing it with a 1 mL of fresh HEPES buffer).

The mark [5] stands for this setting: pH 4.0, 24 h amount minus first 6 hours.
The mark [6] stands for this setting: pH 7.4, 24 h amount minus first 6 hours.
Where [7] appears, read: pH 9.0, 24 h amount minus first 6 hours.
Where [8] appears, read: receptor pH 4.0, donor pH 7.4, after 6 h.
[9] abbreviates: receptor pH 7.4, donor pH 7.4, after 6 h.
Where [10] appears, read: receptor pH 9.0, donor pH 7.4, after 6 h.

Like-named read-outs stand apart in the source and are kept apart here.

With `Nc1ccccc1C(=O)C[C@H](N)C(=O)O` [Kyn, L-kynurenine], the “Normalized cumulative amount Passive” value in data set [1] (setting [5]) was 0.27 ± 0.27 nmol/cm^2. Also, the “Normalized cumulative amount Passive” value in data set [1] (setting [6]) is on record as 2.59 ± 1.50 nmol/cm^2. Also, in data set [1] (setting [7]), the “Normalized cumulative amount Passive” value came to 3.81 ± 0.93 nmol/cm^2. The “Cumulative amount Passive” value in data set [1] (setting [8]) was “<LOQ”. For the same molecule, the “Cumulative amount Passive” value in data set [1] (setting [9]) was “<LOQ”. Also, the “Cumulative amount Passive” value in data set [1] (setting [10]) is given as “<LOQ”. In data set [2], the Kcub/w is on record as 1.3; the “log Kcub/w” value amounted to 0.1; the “bilayer/water partitioning, Kcub/w” value is recorded as 1.5; the “bilayer/water partitioning, log Kcub/w” value is 0.2. Further, in data set [3], the “Cumulative amount Cubic at anode” value came to 0.28 ± 0.28 nmol/cm^2, the “Cumulative amount Cubic at cathode” value was 5.62 ± 0.45 nmol/cm^2, the “Cumulative amount Total at anode” value is listed as 0.28 ± 0.28 nmol/cm^2 and the “Cumulative amount Total at cathode” value was 7.53 ± 0.83 nmol/cm^2. Also, the “detection of endogenous Kyn” value in data set [4] is “no Kyn was detected”.
Regarding `N[C@@H](Cc1c[nH]c2ccccc12)C(=O)O` [Trp, L-tryptophan], the entries for the “Normalized cumulative amount Passive” value in data set [1] (setting [5]), in data set [1] (setting [6]) and in data set [1] (setting [7]) were 0.49 ± 0.49 nmol/cm^2, 2.87 ± 1.66 nmol/cm^2 and 3.50 ± 0.48 nmol/cm^2, respectively. Also, the “Ratio (Trp/Kyn) Passive” value came to 1.81 in data set [1] (pH 4.0, from normalized cumulative amounts); 1.27 in data set [1] (pH 7.4, from normalized cumulative amounts); 1.22 ± 0.19 in data set [1] (pH 9.0, from normalized cumulative amounts). Further, the “cumulative amount by passive diffusion (QP)” value in data set [1] (pH 7.4, after 5 hours) is 0.54±0.12 nmol/cm^2; in data set [1] (pH 7.4, after the first hour), 0.30±0.04 nmol/cm^2. Also, the “Flux Passive” value is 0.01 ± 0.01 nmol/(h · cm^2) in data set [1] (receptor pH 4.0, after 6 hours); 0.07 ± 0.03 nmol/(h · cm^2) in data set [1] (receptor pH 7.4, after 6 hours); 0.10 ± 0.03 nmol/(h · cm^2) in data set [1] (receptor pH 9.0, after 6 hours). The “Cumulative amount Passive” value in data set [1] (setting [8]) was 0.18±0.18 nmol/cm^2; in data set [1] (setting [9]), 0.62±0.13 nmol/cm^2; in data set [1] (setting [10]) it was 0.72±0.09 nmol/cm^2. Moreover, the “partitioning into the cubic lipid bilayer compared to kynurenine” value is “twice as high” in data set [2] and “approximately twice as high” in data set [2] (listed as tryptophan). Further, in data set [2], the Kcub/w turned out to be 2.2. Further, the “log Kcub/w” value in data set [2] was 0.3. Also, in data set [2], the “bilayer/water partitioning, Kcub/w” value is recorded as 3.0. Besides, the “bilayer/water partitioning, log Kcub/w” value in data set [2] was 0.5. The “Ratio Trp/Kyn at cathode cubic” value in data set [3] (from amounts in the cubic phase) is 0.94 ± 0.04. The “Ratio Trp/Kyn at cathode total” value in data set [3] (from the total cumulative amount) was 0.86 ± 0.05. For the same molecule, the “Cumulative amount Cubic at anode” value in data set [3] was 0.68 ± 0.05 nmol/cm^2. In addition, the “Cumulative amount Cubic at cathode” value in data set [3] amounted to 5.29 ± 0.48 nmol/cm^2. Besides, the “Cumulative amount Total at anode” value in data set [3] was 0.68 ± 0.05 nmol/cm^2. For the same molecule, the “Cumulative amount Total at cathode” value in data set [3] is on record as 6.57 ± 1.00 nmol/cm^2. Besides, the “contribution of endogenous Trp to the total cumulative amount of extracted Trp (at the cathode)” value in data set [4] (pig, 6 h, pH 7.4) is listed as “approximately 6%”. Further, in data set [4] (pig, 6 h, pH 7.4), the “cumulative amount of extracted endogenous Trp to the anode” value is 0.22±0.05 nmol/cm^2. The “cumulative amount of extracted endogenous Trp to the cathode” value in data set [4] (pig, 6 h, pH 7.4) came to 0.44±0.06 nmol/cm^2.
